Columns and labels:
Type in all cases: cell-based
androgen receptor (AR) = biological target: T1, androgen receptor (AR) (Homo sapiens, UniProt P10275, T878A); assay: SARD-mediated AR degradation, western blot in LNCaP cells
T1 construct: endogenous in cells; host or cells: LNCaP
T1 sequence (P10275 1-920 T878A): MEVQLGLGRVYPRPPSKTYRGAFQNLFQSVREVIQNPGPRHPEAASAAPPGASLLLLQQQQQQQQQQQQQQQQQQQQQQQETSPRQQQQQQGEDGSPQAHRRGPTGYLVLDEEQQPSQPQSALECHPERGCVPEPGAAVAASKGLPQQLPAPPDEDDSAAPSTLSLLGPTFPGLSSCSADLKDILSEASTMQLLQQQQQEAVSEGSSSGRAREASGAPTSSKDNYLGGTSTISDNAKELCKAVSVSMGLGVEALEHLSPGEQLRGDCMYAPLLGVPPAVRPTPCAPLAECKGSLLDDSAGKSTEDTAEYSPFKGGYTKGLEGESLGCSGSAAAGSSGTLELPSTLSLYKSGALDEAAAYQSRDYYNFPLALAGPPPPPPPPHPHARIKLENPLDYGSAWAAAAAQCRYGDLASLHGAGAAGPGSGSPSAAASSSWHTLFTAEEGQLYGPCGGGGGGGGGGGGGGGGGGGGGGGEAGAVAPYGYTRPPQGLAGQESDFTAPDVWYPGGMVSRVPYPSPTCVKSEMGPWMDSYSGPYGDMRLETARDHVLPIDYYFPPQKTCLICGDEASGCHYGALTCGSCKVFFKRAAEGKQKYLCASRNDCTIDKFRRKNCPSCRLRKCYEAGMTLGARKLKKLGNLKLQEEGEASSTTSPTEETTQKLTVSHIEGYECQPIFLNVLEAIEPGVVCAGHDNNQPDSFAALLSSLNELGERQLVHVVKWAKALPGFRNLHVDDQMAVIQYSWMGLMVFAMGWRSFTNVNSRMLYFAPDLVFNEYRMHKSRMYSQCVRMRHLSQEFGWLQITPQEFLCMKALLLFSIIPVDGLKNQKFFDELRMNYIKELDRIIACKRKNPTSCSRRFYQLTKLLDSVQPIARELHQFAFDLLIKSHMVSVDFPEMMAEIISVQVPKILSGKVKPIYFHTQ
Procedure: FIG. 15A illustrates representative western blots of SARD mediated AR degradation. FIG. 15B is a graph illustrating the percentage of remaining AR as a function of SARD compound concentration.
(§1) FIGS. 32A-32B show a series of representative western blots of SARD-mediated AR degradation according to the present description. LNCaP cells were treated with indicated compounds for 24 hours and SARD 279 and RU59063 were used at 2.5 μM and 25 μM, respectively (FIG. 32A).
(§2) LNCaP and PC3 cells were obtained from ATCC. LNCaP/AR-876L and LNCaP/AR cells were generated by infecting LNCaP cells with the 876L or WT, respectively, AR. All cells were grown at 37° C. in RPMI and supplemented with 10% FBS, 100 U/ml carbenicillin and 100 μg/ml streptomycin. AR (5153) and Hsp70 (4872) antibodies were obtained from Cell Signaling. β-actin antibody (AC-74) was purchased from Sigma. Geldanamycin was purchased from Invivogen. The indicated cells were washed twice with cold PBS, and the cells were lysed in lysis buffer (1×PBS, 1% NP-40, 1 mM EDTA, 40 mM HEPES) with protease inhibitors. The lysates were cleared by centrifugation at 10,000 g for 5 min. The total protein concentration was determined by Bradford assay, and 10 μg of protein was loaded onto an 8% Bis-Tris gel. The blots were processed by standard procedures with the indicated antibodies, and the band intensities were quantified by ImageJ (US National Institutes of Health).

HeLa cells = assay: General cell toxicity in AR-independent HELA cells; conditions: 1 μM, 48 h
Procedure: (§3) To access general cell toxicity, AR-independent HEK293 and HELA cells were treated with 1 μM SARD 279.

HEK293 cells = assay: General cell toxicity in AR-independent HEK293 cells; conditions: HEK293, 1 μM, 48 h
Procedure: as §3

[1] = tested on: AR target genes (FKBP52, PMPEA 1, NKX3.1) in LNCaP-AR cells; assay: AR-dependent gene expression by qPCR in LNCaP-AR cells; conditions: 18 hours; for AR agonist activity: expression of AR target genes: qPCR normalized to GAPDH
Procedure: (§4) LNCaP-AR cells were treated with hormone for 18 hours as indicated and then, RNA was isolated and FKBP52 expression was assessed by qPCR. GAPDH was used to normalize expression. Error represents standard deviation (Panel A). LNCaP cell proliferation assay in the presence of indicated compounds at 3 μM and then, the assay was performed in 10% FBS, and only viable cells were counted at each indicated day (Panel B). […] LNCaP/AR-F876L cells were treated with indicated compounds for 24 hours in 5% charcoal stripped FBS, and then, mRNA was prepared and the relative PSA mRNA was determined by qPCR (Panel D).
FIGS. 34A-34B are a series of graphs illustrating relative pMPEA1 mRNA levels (FIG. 34A) or relative NKX3.1 mRNA levels (FIG. 34B) after treated with SARDS compounds according to the present description. LNCaP-AR cells were treated with hormone for 18 hours and subsequently, mRNA was isolated and FKBP52 expression was assessed by qPCR. GAPDH was used to normalize expression. Error represents standard deviation.
The effects of the SARDS in the present description on AR-dependent gene expression in AR overexpressing LNCaP-AR cells, a validated cellular model of CRPC were examined. LNCaP-AR cells were treated with hormone for 18 hours as indicated. RNA was isolated and FKBP52 expression was assessed by QPCR. GAPDH was used to normalize expression. Error represents standard deviation.

HEK 293T = assay: Cell proliferation assay with HEK 293T cells; conditions: 3 μM
Procedure: (§5) FIGS. 35A-35B are a series of graphs illustrating results of cell proliferation assay. Cell proliferation assay was performed with AR-negative PC-3 prostate cancer cells (FIG. 35A). Indicated compounds at shown doses were added to previously plated PC-3 cells in phenol-red free RPMI, supplemented with 5% charcoal stripped FBS. CellTiterGlo readings were taken at indicated days and the data are plotted as a % of proliferation from Day 0. Cell proliferation assay was performed with HEK293 cells (FIG. 35B), which were plated at 2,000 cells/well in a 6-well plate and dosed with indicated compounds at 3 μM.

LnCAP cells [2] = assay: LNCaP cell proliferation assay in the presence of 1 nM R1881 (CellTiterGlo); conditions: 5% charcoal stripped serum, 7 days
Procedure: as §4
For FIG. 33, panel C, the LNCaP cells were washed with PBS, seeded at 5,000 cells per well in a 96-well plate in 5% Charcoal Stripped Serum (Omega) in phenol-red free RPMI media (Invitrogen). […] Baseline CellTiterGlo (Promega) reading was taken immediately after addition of compounds and 7 days later. The data are plotted so that the Y axis reflects the degree of proliferation at Day 7, compared to Day 0.

[3] = tested on: PC3 human prostate cancer cell line; assay: Cell proliferation assay with AR-negative PC-3 prostate cancer cells (CellTiterGlo); conditions: 5% charcoal stripped FBS
Procedure: as §5

Hsp70 = Hsp70 immunoblot in LNCaP cells treated with SARD 279 and geldanamycin; conditions: 24 hours
Procedure: as §1, §2

LnCAP cells [4] = assay: Proliferation of androgen-dependent LnCAP cells
Procedure: as §4
For FIG. 33, panel B, 2,000 cells in RPMI media, supplemented with 10% FBS, 100 U/ml carbenicillin and 100 μg/ml streptomycin, were plated into each well in a 6-well plate. Two days after plating, the cells were treated with indicated compounds. The number of cells in each well was counted with a hemocytometer using Trypan blue to distinguish viable cells.

CCOCCOCCNC(=O)CCCN1C(=S)N(c2ccc(C#N)c(C(F)(F)F)c2)C(=O)C1(C)C [SARD 280, 4-(3-(4-Cyano-3-(trifluoromethyl)phenyl)-5,5-dimethyl-4-oxo-2-thioxoimidazolidin-1-yl)-N-(2-(2-ethoxyethoxy)ethyl)butanamide] was tested, and the “AR degradation (in words)” value (androgen receptor (AR)) was “affected degradation only at higher concentrations and did not achieve complete AR degradation at the concentrations assayed”.

CC1(C)C(=O)N(c2ccc(C#N)c(C(F)(F)F)c2)C(=S)N1CCCC(=O)NCCOCCOC(=O)CC12CC3CC(CC(C3)C1)C2 [SARD 279, 2-(2-(4-(3-(4-Cyano-3-(trifluoromethyl)phenyl)-5,5-dimethyl-4-oxo-2-thioxoimidazolidin-1-yl)butanamido)ethoxy)ethyl 2-(adamantan-1-yl)acetate] was tested, and the DC50 (androgen receptor (AR); read-out: DC50 (half maximum degradation concentration) of AR) was 1 µM, the “Cytotoxicity compared to vehicle” value (HeLa cells) was “did not display cytotoxic results” and the “Cytotoxicity compared to vehicle” value (HEK293 cells) was “did not display cytotoxic results”.

CC1(C)C(=O)N(c2ccc(C#N)c(C(F)(F)F)c2)C(=S)N1CCCCO [RU59063, 4-[3-(4-hydroxybutyl)-4,4-dimethyl-5-oxo-2-thioxoimidazolidin-1-yl]-2-(trifluoromethyl)benzonitrile, reference compound] was tested, and the “AR degradation (in words)” value (androgen receptor (AR)) was “no degradation was detected” and the “AR agonist activity: expression of AR target genes” value [1] was “increasing expression of a number of AR target genes”.

CNC(=O)c1ccc(N2C(=S)N(c3ccc(C#N)c(C(F)(F)F)c3)C(=O)C2(C)C)cc1F [MDV3100, reference compound] was tested, and the “Proliferation of HEK 293T cells” value (HEK 293T) was “unaffected”, the “Antiproliferative activity in the presence of 1 nM R1881” value (LnCAP cells [2]) was “ineffective in the presence of higher androgen levels” and the “Proliferation of PC3 cells” value [3] was “unaffected”.

In the case of COC1=C2C[C@@H](C)C[C@H](OC)[C@H](O)[C@@H](C)/C=C(\C)[C@H](OC(N)=O)[C@@H](OC)/C=C\C=C(/C)C(=O)NC(=CC1=O)C2=O [geldanamycin, (4E,6Z,8S,9S,10E,12S,13R,14S,16R)-13-hydroxy-8,14,19-trimethoxy-4,10,12,16-tetramethyl-3,20,22-trioxo-2-azabicyclo[16.3.1]docosa-1(21),4,6,10,18-pentaen-9-yl carbamate], the “Hsp70 levels (immunoblot)” value (Hsp70) is reported as “geldanamycin-dependent increase in Hsp70 levels”.

With CC1(C)C(=O)N(c2ccc(C#N)c(C(F)(F)F)c2)C(=S)N1CCCC(=O)NCCOCCOCCOCCOC12CC3CC(CC(C3)C1)C2 [SARD 033, N-(2-(2-(2-(2-(Adamantan-1-yloxy)ethoxy)ethoxy)ethoxy)ethyl)-4-(3-(4-cyano-3-(trifluoromethyl)phenyl)-5,5-dimethyl-4-oxo-2-thioxoimidazolidin-1-yl)butanamide] the “Proliferation of HEK 293T cells” value (HEK 293T) was “unaffected”, the “Cell growth / proliferation of LnCAP cells” value (LnCAP cells [4]; 1 μM, several days) was “significantly attenuated cell growth” and the “Proliferation of LNCaP cells, viable cell count” value (LnCAP cells [4]; 3 μM, 10% FBS, hemocytometer with Trypan blue, over 9 days) was “suppressed proliferation with similar efficacy to MDV3100”. For the same compound, the “Proliferation of PC3 cells” value [3] was “unaffected”, the “Antagonism of gene expression induced by R1881” value ([1]; qPCR) was “antagonized gene expression induced by the synthetic androgen R1881” and the “AR agonist activity: expression of AR target genes” value [1] was “no such agonist activity”.

Reference: US20160022642A1, “Compounds Useful for Promoting Protein Degradation and Methods Using Same” (Yale University, priority 2014, published 2016)
